Experimental data as given in US10766869B2, “Triazoles for the treatment of demyelinating dieases” (Vertex Pharmaceuticals Incorporated, priority 2015, dated 2020).
Read-outs that look alike come from different tables or passages of the source.

Test system: primary rat mixed cortical cells
Assay: In vitro myelination assay (MBP positive myelin strands, fold myelin pixels above background)
Format: cell-based
Details: Rattus norvegicus; for fold induction at 1 µM: 1.0 μM compound; for fold induction at 10 µM: 10.0 μM compound
Method in brief: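 P1 rat mixed cortical cultures (neurons, OPCs, oligodendrocytes, astrocytes, microglia) grown 14 days at 37 °C with compound, half-medium refreshed with compound on days 6 and 10. Fixed cells stained for MBP; MBP-positive myelin strand pixels per well quantified by automated imaging, reported as fold over no-compound baseline at 1.0 and 10.0 μM.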

[1] = read-out: Fold myelin pixels above background relative to baseline of no added compound
[2] = relative to baseline of no added compound, read-out: Fold myelin pixels above background, 1.0 μM
[3] = relative to baseline of no added compound, read-out: Fold myelin pixels above background, 10.0 μM
[4] = relative to baseline of no added compound, read-out: Fold myelin pixels above background

| SMILES | fold induction at 1 µM [1] | fold induction at 10 µM [1] | fold induction at 1 µM [2] | fold induction at 10 µM [3] | fold induction at 1 µM [4] | fold induction at 10 µM [4] |
| --- | --- | --- | --- | --- | --- | --- |
| Cc1cc(Nc2ncn(-c3cc(F)cc(F)c3)n2)cc(N2CCCC2CN2CCOCC2)c1 (stereo not drawn) [Compound 1012, 1-(3,5-difluorophenyl)-N-[3-methyl-5-[2-(morpholinomethyl)pyrrolidin-1-yl]phenyl]-1,2,4-triazol-3-amine] | 1 to 10 | ≤ 1 |  |  |  |  |
| Cc1cc(Nc2ncn(-c3cncc(Cl)c3)n2)cc(N2CCN(C)CC2)c1 [Compound 262, 1-(5-chloro-3-pyridyl)-N-[3-methyl-5-(4-methylpiperazin-1-yl)phenyl]-1,2,4-triazol-3-amine] |  |  | 10 to 100 | 100 to 1000 |  |  |
| CCc1cc(Nc2ncn(-c3cnccn3)n2)cc(N2CCNCC2)c1 [Compound 124, N-(3-ethyl-5-piperazin-1-yl-phenyl)-1-pyrazin-2-yl-1,2,4-triazol-3-amine] |  |  | 1000 to 10000 | ≤ 1 |  |  |
| Cc1cc(Nc2ncn(-c3ccccc3)n2)cc(N2C[C@H]3CCN(C)[C@H]3C2)c1 [Compound 369, N-[3-[(3aR,6aR)-1-methyl-2,3,3a,4,6,6a-hexahydropyrrolo[2,3-c]pyrrol-5-yl]-5-methyl-phenyl]-l-phenyl-1,2,4-triazol-3-amine] |  |  | 1000 to 10000 | ≤ 1 |  |  |
| Cc1cc(Nc2ncn(-c3cc(F)cc(F)c3)n2)cc(N2CC(C(=O)N(C)C)C2)c1 [Compound 711, 1-[3-[[1-(3,5-difluorophenyl)-1,2,4-triazol-3-yl]amino]-5-methyl-phenyl]-N,N-dimethyl-azetidine-3-carboxamide] |  |  |  |  | 10 to 100 | 1 to 10 |
| Cc1cc(Nc2ncn(-c3ccccc3)n2)cc(N2C[C@@H](C)N(C)[C@@H](C)C2)c1 [Compound 423, N-[3-methyl-5-[(3R,5S)-3,4,5-trimethylpiperazin-1-yl]phenyl]-1-phenyl-1,2,4-triazol-3-amine] |  |  |  |  | 100 to 1000 | ≤ 1 |
| OC1(c2cc(F)cc(Nc3ncn(-c4cc(F)cc(F)c4)n3)c2)COC1 [Compound 775, 3-[3-[[1-(3,5-difluorophenyl)-1,2,4-triazol-3-yl]amino]-5-fluoro-phenyl]oxetan-3-ol] |  |  |  |  | 1 to 10 | 10 to 100 |
| Cc1cc(Nc2ncn(-c3cc(F)cc(F)c3)n2)cc(N2CCOC(C3CCCO3)C2)c1 (stereo not drawn) [Compound 888, 1-(3,5-difluorophenyl)-N-[3-methyl-5-(2-tetrahydrofuran-2-ylmorpholin-4-yl)phenyl]-1,2,4-triazol-3-amine] | 1 to 10 | 1 to 10 |  |  |  |  |
| Cc1cc(Nc2ncn(-c3cccc(F)c3)n2)cc(N2CCCC2)c1 [Compound 272, 1-(3-fluorophenyl)-N-(3-methyl-5-pyrrolidin-1-yl-phenyl)-1,2,4-triazol-3-amine] |  |  | 10 to 100 | ≤ 1 |  |  |
| Cc1cc(Nc2ncn(-c3cc(F)cc(F)c3)n2)cc(N2CCN(C(C)(C)C)CC2)c1 [Compound 709, N-[3-(4-tert-butylpiperazin-1-yl)-5-methyl-phenyl]-1-(3,5-difluorophenyl)-1,2,4-triazol-3-amine] |  |  |  |  | 1 to 10 | 1 to 10 |
| Cc1cc(Nc2ncn(-c3cc(F)cc(Cl)c3)n2)cc(N2CCN(C)CC2)c1 [Compound 220, 1-(3-chloro-5-fluoro-phenyl)-N-[3-methyl-5-(4-methylpiperazin-1-yl)phenyl]-1,2,4-triazol-3-amine] |  |  | 10 to 100 | ≤ 1 |  |  |
| O=c1cc(-n2cnc(Nc3cc(C(F)F)cc(N4CCN(C5COC5)CC4)c3)n2)cc[nH]1 [Compound 163, 4-[3-[3-(difluoromethyl)-5-[4-(oxetan-3-yl)piperazin-1-yl]anilino]-1,2,4-triazol-1-yl]-1H-pyridin-2-one] |  |  | 100 to 1000 | ≤ 1 |  |  |
| Cc1cc(Nc2ncn(-c3cc(F)cc(F)c3)n2)cc(N2CCN3C(=O)OCC3C2)c1 (stereo not drawn) [Compound 200, 7-[3-[[1-(3,5-difluorophenyl)-1,2,4-triazol-3-yl]amino]-5-methyl-phenyl]-5,6,8,8a-tetrahydro-1H-oxazolo[3,4-a]pyrazin-3-one] |  |  | 100 to 1000 | 100 to 1000 |  |  |
| CCc1cc(Nc2ncn(-c3ccc(F)c(C)c3)n2)cc(N2CCN(C3COC3)CC2)c1 [Compound 829, N-[3-ethyl-5-[4-(oxetan-3-yl)piperazin-1-yl]phenyl]-1-(4-fluoro-3-methyl-phenyl)-1,2,4-triazol-3-amine] | 1 to 10 | ≤ 1 |  |  |  |  |
| CCN1CCN(c2cc(C)cc(Nc3ncn(-c4ccccc4)n3)c2)CC1 [Compound 274, N-[3-(4-ethylpiperazin-1-yl)-5-methyl-phenyl]-1-phenyl-1,2,4-triazol-3-amine] |  |  | 1000 to 10000 | 1 to 10 |  |  |
| Cc1cc(Nc2ncn(-c3cc(F)cc(F)c3)n2)cc(NC2CCN(C3CCC3)CC2)c1 [Compound 1070, N1-(1-cyclobutyl-4-piperidyl)-N3-[1-(3,5-difluorophenyl)-1,2,4-triazol-3-yl]-5-methyl-benzene-1,3-diamine] | 10 to 100 | ≤ 1 |  |  |  |  |
| Cc1cc(Nc2ncn(-c3cc(F)cc(F)c3)n2)cc(OCC2CCOC2)c1 (stereo not drawn) [Compound 648, 1-(3,5-difluorophenyl)-N-[3-methyl-5-(tetrahydrofuran-3-ylmethoxy)phenyl]-1,2,4-triazol-3-amine] |  |  |  |  | 10 to 100 | 10 to 100 |
| Cc1cc(Nc2ncn(-c3cc(F)cc(F)c3)n2)cc(C2(O)CCN(C)C2)c1 (stereo not drawn) [Compound 242, 3-[3-[[1-(3,5-difluorophenyl)-1,2,4-triazol-3-yl]amino]-5-methyl-phenyl]-1-methyl-pyrrolidin-3-ol] |  |  | 10 to 100 | ≤ 1 |  |  |
| Cc1cc(Nc2ncn(-c3cc(F)cc(F)c3)n2)cc(NC2CCCCC2N2CCOCC2)c1 (stereo not drawn) [Compound 939, N3-[1-(3,5-difluorophenyl)-1,2,4-triazol-3-yl]-5-methyl-N1-(2-morpholinocyclohexyl)benzene-1,3-diamine] | 1 to 10 | ≤ 1 |  |  |  |  |
| COCCC1CCN(c2cc(C)cc(Nc3ncn(-c4cc(F)cc(F)c4)n3)n2)CC1 [Compound 855, N-[1-(3,5-difluorophenyl)-1,2,4-triazol-3-yl]-6-[4-(2-methoxyethyl)-1-piperidyl]4-methyl-pyridin-2-amine] | 1 to 10 | 1 to 10 |  |  |  |  |
| Cc1cc(Nc2ncn(-c3cccnc3)n2)cc(N2CC3(C2)CN(C(C)C)C3)c1 [Compound 966, N-[3-(2-isopropyl-2,6-diazaspiro[3.3]heptan-6-yl)-5-methyl-phenyl]-1-(3-pyridyl)-1,2,4-triazol-3-amine] | 1 to 10 | ≤ 1 |  |  |  |  |
| Cc1cc(Nc2ncn(-c3cc(F)cc(F)c3)n2)cc(N2CCN(CC3CCCN(C)C3)CC2)c1 (stereo not drawn) [Compound 1047, 1-(3,5-difluorophenyl)-N-[3-methyl-5-[4-[(1-methyl-3-piperidyl)methyl]piperazin-1-yl]phenyl]-1,2,4-triazol-3-amine] | 1 to 10 | ≤ 1 |  |  |  |  |
| CC(=O)N1CC(CNc2cc(C)cc(Nc3ncn(-c4cc(F)cc(F)c4)n3)c2)C1 [Compound 1031, 1-[3-[[3-[[1-(3,5-difluorophenyl)-1,2,4-triazol-3-yl]amino]-5-methyl-anilino]methyl]azetidin-1-yl]ethanone] | 10 to 100 | ≤ 1 |  |  |  |  |
| Cc1cc(Nc2ncn(-c3cc(F)cc(F)c3)n2)cc(N(C)C2COC2)c1 [Compound 197, N3-[1-(3,5-difluorophenyl)-1,2,4-triazol-3-yl]-N1,5-dimethyl-N1-(oxetan-3-yl)benzene-1,3-diamine] |  |  | 100 to 1000 | 100 to 1000 |  |  |
| Cc1cc(Nc2ncn(-c3cc(F)cc(F)c3)n2)cc(N2CC3(CCO3)C2)c1 [Compound 508, 1-(3,5-difluorophenyl)-N-[3-methyl-5-(3-oxa-6-azaspiro[3.3]heptan-6-yl)phenyl]-1,2,4-triazol-3-amine] |  |  |  |  | 100 to 1000 | 10 to 100 |
| c1ccc(-n2cnc(Nc3cc(C4CC4)nc(N4CCC5(CC4)OCCO5)c3)n2)cc1 [Compound 9, 2-cyclopropyl-6-(1,4-dioxa-8-azaspiro[4.5]decan-8-yl)-N-(1-phenyl-1,2,4-triazol-3-yl)pyridin-4-amine] |  |  | 1000 to 10000 | 100 to 1000 |  |  |
| Cc1cc(Nc2ncn(-c3cc(F)ccc3F)n2)cc(N2CCN(C3COC3)CC2)c1 [Compound 437, 1-(2,5-difluorophenyl)-N-[3-methyl-5-[4-(oxetan-3-yl)piperazin-1-yl]phenyl]-1,2,4-triazol-3-amine] |  |  |  |  | 10 to 100 | 10 to 100 |
| Cc1cc(Nc2ncn(-c3ccc(F)c(F)c3)n2)cc(N[C@H]2C[C@H](N3CCOCC3)C2)c1 (single isomer, unassigned) [Compound 792, N1-[1-(3,4-difluorophenyl)-1,2,4-triazol-3-yl]-5-methyl-N3-(3-morpholinocyclobutyl)benzene-1,3-diamine] | 10 to 100 | ≤ 1 |  |  |  |  |
| COC[C@H]1CCCN1c1cc(F)cc(-n2cnc(Nc3cc(C)cc(N4CCN(C5COC5)CC4)c3)n2)c1 [Compound 491, 1-[3-fluoro-5-[(2R)-2-(methoxymethyl)pyrrolidin-1-yl]phenyl]-N-[3-methyl-5-[4-(oxetan-3-yl)piperazin-1-yl]phenyl]-1,2,4-triazol-3-amine] |  |  |  |  | 100 to 1000 | ≤ 1 |
| Cc1cc(Nc2ncn(-c3ccc(F)c(F)c3)n2)cc(OCCn2cccn2)c1 [Compound 698, 1-(3,4-difluorophenyl)-N-[3-methyl-5-(2-pyrazol-1-ylethoxy)phenyl]-1,2,4-triazol-3-amine] |  |  |  |  | 10 to 100 | 10 to 100 |
